The values below come from patent US11787788B2, “Benzimidazole derivatives, and pharmaceutical compositions and methods of use thereof” (CAPELLA THERAPEUTICS, INC., priority 2014, dated 2023).

What all share (format): cell-based
The test system of assay [1] is HCC827 human NSCLC adenocarcinoma cells. Nature of the assay: Cell proliferation assay, mutant ERBB1 (exon 19 deletion). The conditions noted are these: for GI50: Homo sapiens, HCC827, 72 hrs treatment; for Selectivity Ratio (Wild-type ERBB1/Mutant ERBB1) A431/HCC827: ratio of GI50 A431/HCC827; for Selectivity Ratio (Wild-type ERBB1/Mutant ERBB1) HEKn/HCC827: ratio of GI50 HEKn/HCC827. How it is done:
(§1) The biological activity of a test compound was determined using cell proliferation assays. The activity against wild-type ERBB1 was determined using A431 human epidermoid carcinoma cells (ATCC) and human epidermal keratinocytes, neonatal, or HEKn cells (ATCC).
(§2) A431 cells were grown in DMEM (Invitrogen) supplemented with 10% FBS (Lonza), 1% penicillin-streptomycin, and 2 mM glutamine (Invitrogen). HEKn cells were grown in EPILIFE® (Invitrogen) supplemented with HKGS (Invitrogen). HCC827 and H1975 were cultured in RPMI1640 supplemented with 10% FBS (Lonza), 1% penicillin-streptomycin, and 2 mM glutamine (Invitrogen). Cells were maintained and propagated at 37° C. and 5% CO2 in a humidified cell culture incubator. Aliquots of cells from early passages were preserved for liquid nitrogen storage. Frozen vials of cells were thawed at 37° C. water bath. Cells were spun to remove freezing medium. The newly revived frozen cells were adapted in culture for 10 days before used for compound testing. Cells used in the assay were less than 20 subculture passages or 3 months in culture.
(§3) The test compounds were dissolved in dimethylsulfoxide (DMSO) and stored at −20° C. before testing. […] The cells were placed in a culture incubator overnight. Next day, test compounds in DMSO were added to the cells and placed back in the culture incubator for 72 hrs. In the meantime, the cell numbers at time zero of the compound treatment (T0) was measured by ENERCOUNT® (Codex BioSolutions). At the end of the compound treatment, the cell numbers were again measured by EnerCount as T72 values. The untreated controls (Ctrl) were cell numbers recorded from the 0.1% DMSO treatment. The percent growth inhibition by the test compound was calculated by the formula: (1−(T72−T0)/(Ctrl−T0))×100.
(§4) The results are summarized in Tables 1 and 2, wherein A represents a value no greater than 500 nM, B represents a value greater than 500 nM but no greater than 1 μM, C represents a value greater than 1 μM but no greater than 5 μM, and D represents a value greater than 5 μM; and wherein A′ represents a ratio of greater than 10, B′ represents a ratio of no greater than 10 but no less than 5, C′ represents a ratio of no greater than 5 but no less than 2, and D′ represents a ratio of no greater than 2.

Assay [2] has as its system H1975 human NSCLC adenocarcinoma cells. Kind of assay: Cell proliferation assay, drug-resistant mutant ERBB1 (T790M/L858R). The settings on record: for GI50: Homo sapiens, NCI-H1975, 72 hrs treatment, class symbols; for Selectivity Ratio (Wild-type ERBB1/Mutant ERBB1) A431/H1975: ratio of GI50 A431/H1975; for Selectivity Ratio (Wild-type ERBB1/Mutant ERBB1) HEKn/H1975: ratio of GI50 HEKn/H1975. The protocol:
as §1, §2, §3, §4

For assay [3], the system named is A431 human epidermoid carcinoma cells. Kind of assay: Cell proliferation assay, wild-type ERBB1. The settings on record: A-431, 72 hrs treatment, class symbols. The protocol:
as §1, §2, §3, §4

For assay [4], the system named is human epidermal keratinocytes, neonatal, or HEKn cells. Kind of assay: Cell proliferation assay, wild-type ERBB1. The conditions noted are these: Keratinocyte, 72 hrs treatment. The protocol:
as §1, §2, §3, §4

Molecules are shown by their SMILES.

On to `C=CC(=O)N1CCCC[C@@H](n2c(NC(=O)c3ccnc(C)c3)nc3cccc(OC4CCN(C(C)=O)CC4)c32)C1` [Compound A2, (R)—N-(7-((1-acetylpiperidin-4-yl)oxy)-1-(1-acryloylazepan-3-yl)-1H-benzo[d]imidazol-2-yl)-2-methylisonicotinamide], for which the GI50 in assay [1] (class symbols) was under 500 nM. In assay [1], the “Selectivity Ratio (Wild-type ERBB1/Mutant ERBB1) A431/HCC827” value is listed as “A′ (A′ represents a ratio of greater than 10)” and the “Selectivity Ratio (Wild-type ERBB1/Mutant ERBB1) HEKn/HCC827” value is recorded as “A′ (A′ represents a ratio of greater than 10)”. Moreover, in assay [2], the GI50 was under 500 nM, the “Selectivity Ratio (Wild-type ERBB1/Mutant ERBB1) A431/H1975” value is reported as “B′ (B′ represents a ratio of no greater than 10 but no less than 5)” and the “Selectivity Ratio (Wild-type ERBB1/Mutant ERBB1) HEKn/H1975” value is “A′ (A′ represents a ratio of greater than 10)”. Besides, the GI50 in assay [3] was 500 to 1000 nM. Moreover, the 50% growth inhibitory concentration (GI50) in assay [4] (class symbols) is over 5000 nM.
Take `Cc1cc(C(=O)Nc2nc3cc(OC(F)(F)F)cc(Cl)c3n2[C@@H]2CCCCN(C(=O)/C=C/CN(C)C)C2)ccn1` [Compound A5, (R,E)-N-(7-Chloro-1-(1-(4-(dimethylamino)but-2-enoyl)azepan-3-yl)-5-(trifluoromethoxy)-1H-benzo[d]imidazol-2-yl)-2-methylisonicotinamide]: the GI50 was under 500 nM in assay [1] (class symbols), under 500 nM in assay [2], 1000 to 5000 nM in assay [3] and 1000 to 5000 nM in assay [4] (class symbols). In assay [1], the “Selectivity Ratio (Wild-type ERBB1/Mutant ERBB1) A431/HCC827” value is recorded as “A′ (A′ represents a ratio of greater than 10)”. The “Selectivity Ratio (Wild-type ERBB1/Mutant ERBB1) HEKn/HCC827” value in assay [1] is listed as “A′ (A′ represents a ratio of greater than 10)”. In addition, the “Selectivity Ratio (Wild-type ERBB1/Mutant ERBB1) A431/H1975” value in assay [2] is “C′ (C′ represents a ratio of no greater than 5 but no less than 2)”. In assay [2], the “Selectivity Ratio (Wild-type ERBB1/Mutant ERBB1) HEKn/H1975” value was “A′ (A′ represents a ratio of greater than 10)”.
Take `C=CC(=O)N1CCC(Oc2cccc3nc(NC(=O)c4ccnc(C)c4)n([C@@H]4CCCCN(C(=O)C=C)C4)c23)CC1` [Compound A3, (R)—N-(1-(1-acryloylazepan-3-yl)-7-((1-acryloylpiperidin-4-yl)oxy)-1H-benzo[d]imidazol-2-yl)-2-methylisonicotinamide]: in assay [1] (class symbols), the GI50 was under 500 nM. In addition, in assay [1], the “Selectivity Ratio (Wild-type ERBB1/Mutant ERBB1) A431/HCC827” value is “A′ (A′ represents a ratio of greater than 10)” and the “Selectivity Ratio (Wild-type ERBB1/Mutant ERBB1) HEKn/HCC827” value is recorded as “A′ (A′ represents a ratio of greater than 10)”. In addition, in assay [2], the GI50 was under 500 nM, the “Selectivity Ratio (Wild-type ERBB1/Mutant ERBB1) A431/H1975” value was “B′ (B′ represents a ratio of no greater than 10 but no less than 5)” and the “Selectivity Ratio (Wild-type ERBB1/Mutant ERBB1) HEKn/H1975” value was “A′ (A′ represents a ratio of greater than 10)”. The GI50 in assay [3] was over 5000 nM. In addition, in assay [4] (class symbols), the 50% growth inhibitory concentration (GI50) lay within 1000 to 5000 nM.
`C=CC(=O)Nc1cccc(Nc2nc(Nc3ccc(N4CCN(C(C)=O)CC4)cc3OC)ncc2C(F)(F)F)c1` [CO-1686, reference compound]: the GI50 was found to be 32 nM in assay [1] (numeric values, unit inferred) and 2500 nM in assay [4] (numeric values, unit inferred). The “Selectivity Ratio (Wild-type ERBB1/Mutant ERBB1) HEKn/HCC827” value in assay [1] is recorded as “A′ (A′ represents a ratio of greater than 10)”. In assay [2], the “Selectivity Ratio (Wild-type ERBB1/Mutant ERBB1) HEKn/H1975” value is “A′ (A′ represents a ratio of greater than 10)”.
With `C=CC(=O)N1CCCC[C@@H](n2c(NC(=O)c3ccnc(C)c3)nc3cc(OC(F)(F)F)cc(Cl)c32)C1` [Compound A4, (R)—N-(1-(1-Acryloylazepan-3-yl)-7-chloro-5-(trifluoromethoxy)-1H-benzo[d]imidazol-2-yl)-2-methylisonicotinamide], the GI50 in assay [1] (class symbols) is under 500 nM; in assay [2] it was under 500 nM; in assay [3], 1000 to 5000 nM; in assay [4] (class symbols), 1000 to 5000 nM. For the same compound, the “Selectivity Ratio (Wild-type ERBB1/Mutant ERBB1) A431/HCC827” value in assay [1] was “A′ (A′ represents a ratio of greater than 10)”. In assay [1], the “Selectivity Ratio (Wild-type ERBB1/Mutant ERBB1) HEKn/HCC827” value was “A′ (A′ represents a ratio of greater than 10)”. In addition, in assay [2], the “Selectivity Ratio (Wild-type ERBB1/Mutant ERBB1) A431/H1975” value was “C′ (C′ represents a ratio of no greater than 5 but no less than 2)”. Besides, the “Selectivity Ratio (Wild-type ERBB1/Mutant ERBB1) HEKn/H1975” value in assay [2] was “C′ (C′ represents a ratio of no greater than 5 but no less than 2)”.
With `C=CC(=O)N1CCCC[C@@H](n2c(NC(=O)c3ccnc(C)c3)nc3cccc(OC4CCN(CC)CC4)c32)C1` [Compound A1, (R)—N-(1-(1-Acryloylazepan-3-yl)-7-((1-ethylpiperidin-4-yl)oxy)-1H-benzo[d]imidazol-2-yl)-2-methylisonicotinamide], the GI50 was under 500 nM in assay [1] (class symbols), under 500 nM in assay [2], under 500 nM in assay [3] and 1000 to 5000 nM in assay [4] (class symbols). Besides, the “Selectivity Ratio (Wild-type ERBB1/Mutant ERBB1) A431/HCC827” value in assay [1] is “A′ (A′ represents a ratio of greater than 10)”. Further, the “Selectivity Ratio (Wild-type ERBB1/Mutant ERBB1) HEKn/HCC827” value in assay [1] was “A′ (A′ represents a ratio of greater than 10)”. Further, the “Selectivity Ratio (Wild-type ERBB1/Mutant ERBB1) A431/H1975” value in assay [2] is reported as “A′ (A′ represents a ratio of greater than 10)”. In addition, in assay [2], the “Selectivity Ratio (Wild-type ERBB1/Mutant ERBB1) HEKn/H1975” value was “A′ (A′ represents a ratio of greater than 10)”.

As a reminder, the GI50 is the concentration that inhibits growth by half.
